# Measurements as given in patent publication US20250011686A1, “BIODEGRADABLE CHELATING AGENTS AND METHODS FOR FABRIC CARE” (The Procter & Gamble Company, priority 2023, published 2025).
# Legend:
# Format in all cases: physicochemical
# [1] = pKa of chelating agent (Table 1); details: successive pKa values; for catechin (A)/(B)
# Description: Chelation is a type of bonding of ions and molecules to metal ions. It involves the formation or presence of two or more separate coordinate bonds between a ligand and a metal atom. Without being bound by theory, the stain removal effectiveness of a composition comprising one or more chelating agents may depend at least in part on the ability of the chelating agent(s) to bind to iron, which may be present in some stains, such as fruit or beverage stains. Several factors may impact a chelating agent's ability to bind to iron. These factors may include the pKa of the chelating agent compared to the wash pH, and the affinity of the chelating agent to bind with other metals, materials, or compositions in the wash.
# Various embodiments may provide or employ a composition that comprises one or more chelating agents having a pKa that is less than the wash pH.
# [2] = Calcium binding efficiency, logK(β110) (Table 1); details: one metal, one ligand, no protons
# Description: (§1) The binding efficiencies may be expressed as a binding constant. A binding constant (also called formation constant or stability constant) is an equilibrium constant for the formation of a complex in solution. It is a measure of the strength of the interaction between the reagents that come together to form the complex. As an example, various stains may comprise catechins as shown in Formula 13. In Table 1, the reaction between metals and ligands is described in terms of log K(β110). In this context, K, is the equilibrium constant for the reaction between ligands and metals. The higher K, the more metal is bound. This is illustrated in the following example. β, represents the binding efficiency and receives some subscripts (βmlh) to indicate how many metals (m), ligands (l), and protons (h) respectively are involved.
# [3] = Iron binding efficiency, logK(β110) (Table 1); details: one metal, one ligand, no protons
# Description: as §1
Compound,pKa [1],Ca^2+ logK(β110) (calcium binding efficiency) [2],Ca^2+ logK(β110) (calcium binding efficiency) ([2]; listed as catechins),Fe (III) logK(β110) (iron binding efficiency) [3],Fe (III) logK(β110) (iron binding efficiency) ([3]; listed as catechins)
Oc1cc(O)c2c(c1)OC(c1ccc(O)c(O)c1)C(O)C2 (stereo not shown) [Catechin],8.7,3.5,about 3.5,19.2,about 19.2
"CC(O)(P(=O)(O)O)P(=O)(O)O [HEDP, 1-Hydroxyethylidene-1,1-diphosphonic acid, reference compound]",,6.8,,14.1,
"CC(C)c1cccc(=O)c(O)c1 [Hinokitiol, 2-Hydroxy-6-(propan-2-yl)cyclohepta-2,4,6-trien-1-one]",~7,2.2,,12.9,
"O=c1cccccc1O [Tropolone, 2-Hydroxycyclohepta-2,4,6-trien-1-one]",6.7,3.1,,10.5,
